# Ends that are not written are not given here.
# Key:
# [1] = target: T1, extracellular domain of EGFR protein (Homo sapiens, UniProt P00533); settings: cited from earlier work
# [2] = target: T1, extracellular domain of EGFR protein; assay: SPR analysis on immobilized EGFR extracellular domain; format: binding; settings: analyte up to 250 μM, HBS-EP+ with 4% DMSO
compound,measurement,setting,value
"2: EGFR-L1 sequence modified with a glycine spacer, amide terminus (GLARLLT-NH2) [compound 2]",Association and dissociation with EGFR ECD by SPR (in words),[1]; earlier studies,fast association and dissociation
CC1=CC(C)=[N+]2C1=C(CCCC(=O)O)c1c(C)cc(C)n1[B-]2(F)F [BODIPY 1],Kind of binding to EGFR ECD in SPR sensorgram (in words),[2],non-specific binding
cyclo(K(N3)larllt) [reference compound],Binding to EGFR (in words),[1]; previously shown,high affinity
